Among the test systems are OVCAR-5 ovarian; MALME-3M melanoma; CAKI-1 renal; PC-3 prostate; HCT-15 colon; A549 NSCLC; RXF 393 renal; COLO 205 colon; 786-0 renal; A498 renal.
Assay in all cases: inhibition of tumour cell growth, NCI panel, 48 h

These results are taken from PubChem BioAssay (NCI).

Molecules are shown by their SMILES.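 Interpolation was linear, between the two tested concentrations surrounding the appropriate level; five concentrations were tested over 48 hours in 96-well plates. Here, GI50 denotes the concentration required for 50% inhibition of growth. TGI: concentration producing complete growth inhibition.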

`CC12CCC(=O)C(O1)C1C(=O)c3cc4ccccc4cc3C(=O)C12` (stereo not given): the GI50 with OVCAR-5 ovarian is 29.3 µM; with MALME-3M melanoma, 12.9 µM; in the assay with CAKI-1 renal, 4.94 µM; in the assay with PC-3 prostate, 16.8 µM; in the assay with HCT-15 colon it was 17.3 µM; in the assay with A549 NSCLC it was 32.4 µM. Further, the GI50 was 2.5 µM in the assay on RXF 393 renal, 19.9 µM with COLO 205 colon and 16.3 µM in the assay on 786-0 renal. Further, the TGI in the assay with OVCAR-5 ovarian is 69.6 µM; in the assay on MALME-3M melanoma, 29.5 µM; in the assay with CAKI-1 renal it was 25.6 µM; in the assay on PC-3 prostate, 43.4 µM; in the assay with HCT-15 colon, 36.8 µM; in the assay with A549 NSCLC it was greater than 100 µM. The TGI is 14.6 µM with RXF 393 renal, 47.1 µM with COLO 205 colon and 30 µM in the assay with 786-0 renal.

On to `CC1=CC(=O)c2c(O)cccc2C1=O`, for which the TGI in the assay on OVCAR-5 ovarian stood at 3.78 µM; in the assay with MALME-3M melanoma it was 2.19 µM; in the assay on CAKI-1 renal, 3.24 µM; in the assay on PC-3 prostate, 4.75 µM; in the assay with A498 renal, 13.2 µM; in the assay with A549 NSCLC, 34.6 µM. For the same compound, the TGI with RXF 393 renal is 3.07 µM; in the assay with COLO 205 colon, 3.39 µM; in the assay on 786-0 renal it was 3.01 µM.

`c1ccc2nc(Cn3c[n+](Cc4ccc5ccccc5n4)c4ccccc43)ccc2c1`: the GI50 is 2.43 µM with OVCAR-5 ovarian; 1.26 µM in the assay on MALME-3M melanoma; 2.48 µM with PC-3 prostate; 15.1 µM with HCT-15 colon; 2.24 µM in the assay with A498 renal; 11.6 µM in the assay with A549 NSCLC. The GI50 in the assay with RXF 393 renal is 3.1 µM; in the assay with COLO 205 colon, 1.37 µM; with 786-0 renal, 4.2 µM. Besides, the TGI was 13.7 µM in the assay on OVCAR-5 ovarian; 4.7 µM in the assay on MALME-3M melanoma; 12.2 µM with PC-3 prostate; 32.6 µM with HCT-15 colon; 10.2 µM in the assay on A498 renal; 25.9 µM in the assay on A549 NSCLC. Also, the values for the TGI with RXF 393 renal, in the assay with COLO 205 colon and with 786-0 renal were 12 µM, 3.22 µM and 16.4 µM, respectively.

Turning to `COc1ccc(Cn2nc(-c3cc(OC)c(OC)c(OC)c3)c3c2CCc2cnoc2-3)cc1OC`, the GI50 in the assay on OVCAR-5 ovarian was 26.6 µM; with MALME-3M melanoma, 14.8 µM; in the assay with PC-3 prostate, 3.62 µM; in the assay on HCT-15 colon, 4.98 µM; in the assay with A498 renal, 2 µM; in the assay on A549 NSCLC, 6.27 µM. In addition, the GI50 with RXF 393 renal is 1.63 µM; in the assay with COLO 205 colon it was 4.68 µM; with 786-0 renal, 6.34 µM. The TGI with OVCAR-5 ovarian was greater than 100 µM; with MALME-3M melanoma it was greater than 100 µM; in the assay on PC-3 prostate, 65.3 µM; in the assay with HCT-15 colon, greater than 100 µM; in the assay with A498 renal it was 9.8 µM; in the assay with A549 NSCLC it was greater than 100 µM. The values for the TGI in the assay with RXF 393 renal, in the assay on COLO 205 colon and in the assay on 786-0 renal were 9.29 µM, 23.4 µM and greater than 100 µM, respectively.

In the case of `Cc1ccc2[nH]c(C(=O)NN3C(=O)CSC34CCCCC4C)c(-c3ccccc3)c2c1` (stereo not given), the GI50 is 19.7 µM in the assay on OVCAR-5 ovarian; 17.3 µM in the assay with MALME-3M melanoma; 16.1 µM with CAKI-1 renal; 12.5 µM in the assay on PC-3 prostate; 18 µM in the assay with HCT-15 colon; 17.6 µM in the assay with A498 renal. Besides, the GI50 with A549 NSCLC is 13.2 µM; in the assay with COLO 205 colon it was 20.4 µM; with 786-0 renal, 17.3 µM. The TGI in the assay on OVCAR-5 ovarian turned out to be 36.1 µM; with MALME-3M melanoma, 35.6 µM; in the assay with CAKI-1 renal, 32.2 µM; in the assay with PC-3 prostate, 30.1 µM; with HCT-15 colon it was 39.1 µM; in the assay with A498 renal it was 34.5 µM. The TGI with A549 NSCLC was 28.2 µM; in the assay on COLO 205 colon it was 48.9 µM; in the assay with 786-0 renal, 37.9 µM.

With `C=C1C(=O)O[C@@H]2C1CC(=O)C(C)CC/C=C(\C)CCC[C@H](C)[C@H]2OC(C)=O` (stereo not given in full), the GI50 in the assay with OVCAR-5 ovarian is 18 µM; with CAKI-1 renal, 11.9 µM; in the assay on PC-3 prostate, 13.7 µM; with HCT-15 colon, 13.7 µM; in the assay on A498 renal, 20.7 µM; in the assay on A549 NSCLC, 19.6 µM. Moreover, the GI50 was 7.9 µM with RXF 393 renal, 5.34 µM in the assay on COLO 205 colon and 17 µM with 786-0 renal. For the same compound, the TGI stood at 34.6 µM with OVCAR-5 ovarian; 24.4 µM with CAKI-1 renal; 30.6 µM in the assay on PC-3 prostate; 30.4 µM with HCT-15 colon; 35.4 µM in the assay with A498 renal; 38.7 µM with A549 NSCLC. For the same compound, the TGI is 24.4 µM with RXF 393 renal, greater than 100 µM in the assay with COLO 205 colon and 32.2 µM in the assay with 786-0 renal.

For `Nc1ncnc2c1ccn2C1OC2COP(=O)(O)OC2C1O` (stereo not given), the TGI in the assay on OVCAR-5 ovarian came to 46.9 µM; in the assay with MALME-3M melanoma it was 1.41 µM; in the assay on PC-3 prostate, 3.07 µM; with HCT-15 colon it was 3.11 µM; in the assay on A498 renal, 28.2 µM; in the assay with A549 NSCLC, 12.8 µM. The TGI in the assay on RXF 393 renal is 5.02 µM; with COLO 205 colon, 3.99 µM; in the assay on 786-0 renal, greater than 20.9 µM.

For `CSc1nnc(CCSc2ccnc3c(C(F)(F)F)cccc23)o1`, the GI50 in the assay with OVCAR-5 ovarian is greater than 100 µM; in the assay on MALME-3M melanoma, greater than 100 µM; in the assay on CAKI-1 renal it was 31.8 µM; with PC-3 prostate, 88.4 µM; in the assay with HCT-15 colon it was greater than 100 µM; in the assay with A549 NSCLC it was greater than 100 µM. Besides, the GI50 in the assay on RXF 393 renal was 65.3 µM; in the assay with COLO 205 colon it was greater than 100 µM; in the assay with 786-0 renal, 95.3 µM. Besides, the TGI in the assay on OVCAR-5 ovarian, in the assay on MALME-3M melanoma, with CAKI-1 renal, with PC-3 prostate, in the assay with HCT-15 colon and with A549 NSCLC was greater than 100 µM in each case. The TGI with RXF 393 renal, in the assay on COLO 205 colon and in the assay on 786-0 renal was greater than 100 µM each time.

As to `CC(C)(C(=O)NN)c1ccccc1`, the TGI in the assay on OVCAR-5 ovarian, in the assay on MALME-3M melanoma, in the assay with CAKI-1 renal, in the assay on PC-3 prostate, in the assay on HCT-15 colon and in the assay on A498 renal was greater than 100 µM in each case. Also, the TGI in the assay on A549 NSCLC, in the assay on COLO 205 colon and in the assay with 786-0 renal was greater than 100 µM in each case.
